From article PMC10224994, “Dual synergistic inhibition of COX and LOX by potential chemicals from Indian daily spices investigated through detailed computational studies” (Scientific Reports, 2023)
Like-named read-outs stand apart in the source and are kept apart here.

How the values were obtained:
Assay type in all cases: biochemical
[1] = target: T1, COX-2 (human recombinant) (Homo sapiens, UniProt P35354); assay: In vitro COX-2 inhibition assay (EIA kit); details: mean of three replicates ± SEM
T1 construct: purchased Cayman Chemical
T1 sequence (P35354 18-604): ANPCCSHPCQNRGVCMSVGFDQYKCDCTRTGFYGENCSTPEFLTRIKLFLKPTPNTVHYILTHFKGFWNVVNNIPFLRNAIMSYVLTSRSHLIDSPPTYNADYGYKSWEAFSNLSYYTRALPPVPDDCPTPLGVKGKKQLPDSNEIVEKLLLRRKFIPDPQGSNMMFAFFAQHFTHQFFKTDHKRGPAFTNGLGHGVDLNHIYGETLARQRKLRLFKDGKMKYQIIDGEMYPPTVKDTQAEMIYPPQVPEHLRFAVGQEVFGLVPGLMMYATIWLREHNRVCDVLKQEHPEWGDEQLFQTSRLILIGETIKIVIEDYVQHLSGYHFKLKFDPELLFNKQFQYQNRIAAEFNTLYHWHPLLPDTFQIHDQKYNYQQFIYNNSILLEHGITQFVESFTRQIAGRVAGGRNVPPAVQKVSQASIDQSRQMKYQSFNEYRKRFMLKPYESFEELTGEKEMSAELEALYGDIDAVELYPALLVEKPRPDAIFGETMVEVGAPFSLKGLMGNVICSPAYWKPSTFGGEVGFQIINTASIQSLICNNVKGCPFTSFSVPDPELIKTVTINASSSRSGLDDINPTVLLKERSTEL
Experimental: (§1) The inhibitory activity was measured and reported as IC50 value (µM). Data are expressed as IC50 ± SEM for triplicate studies.
(§2) Colorimetric enzyme immunoassay (EIA) was used to assess the inhibitory potential of the test compounds against COX-1, COX-2, and 5-LOX enzymes.

5-LOX enzyme = target: T2, 5-LOX enzyme (Homo sapiens, UniProt P09917); assay: In vitro 5-LOX inhibition assay (Human Lipoxygenase Inhibitor screening kit); details: mean of three replicates ± SEM
T2 construct: purchased Cayman Chemical
T2 sequence (P09917 1-674): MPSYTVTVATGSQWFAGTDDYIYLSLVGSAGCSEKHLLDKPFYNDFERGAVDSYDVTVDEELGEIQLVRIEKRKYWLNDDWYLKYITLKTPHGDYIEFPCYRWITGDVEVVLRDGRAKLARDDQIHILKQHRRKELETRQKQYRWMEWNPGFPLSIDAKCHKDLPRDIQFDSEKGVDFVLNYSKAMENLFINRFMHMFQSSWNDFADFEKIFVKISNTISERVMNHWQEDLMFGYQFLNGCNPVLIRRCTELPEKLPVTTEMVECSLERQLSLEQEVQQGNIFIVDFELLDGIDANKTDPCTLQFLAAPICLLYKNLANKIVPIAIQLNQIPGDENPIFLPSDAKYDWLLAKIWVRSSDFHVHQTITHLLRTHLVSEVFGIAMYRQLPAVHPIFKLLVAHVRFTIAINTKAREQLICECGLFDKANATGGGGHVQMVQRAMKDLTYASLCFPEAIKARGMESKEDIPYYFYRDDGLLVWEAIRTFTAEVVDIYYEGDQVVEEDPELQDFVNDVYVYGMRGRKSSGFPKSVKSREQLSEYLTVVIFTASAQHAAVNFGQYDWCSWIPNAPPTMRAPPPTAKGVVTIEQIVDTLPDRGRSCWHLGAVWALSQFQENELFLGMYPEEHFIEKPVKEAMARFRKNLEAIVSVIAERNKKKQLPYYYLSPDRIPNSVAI
Experimental: The ability of the test compounds to inhibit the 5-LOX enzyme was evaluated using the Human Lipoxygenase Inhibitor screening assay (EIA) kit (Cayman Chemical). The IC50 values were measured in µM according to the manufacturer’s instructions and reported method[63]–[65]. Data are expressed as IC50 ± SEM for triplicate studies.
as §2

COX-1 (ovine) = target: T3, COX-1 (ovine) (Ovis aries, UniProt P05979); assay: In vitro COX-1 inhibition assay (EIA kit)
T3 construct: purchased Cayman Chemical
T3 sequence (P05979 25-600): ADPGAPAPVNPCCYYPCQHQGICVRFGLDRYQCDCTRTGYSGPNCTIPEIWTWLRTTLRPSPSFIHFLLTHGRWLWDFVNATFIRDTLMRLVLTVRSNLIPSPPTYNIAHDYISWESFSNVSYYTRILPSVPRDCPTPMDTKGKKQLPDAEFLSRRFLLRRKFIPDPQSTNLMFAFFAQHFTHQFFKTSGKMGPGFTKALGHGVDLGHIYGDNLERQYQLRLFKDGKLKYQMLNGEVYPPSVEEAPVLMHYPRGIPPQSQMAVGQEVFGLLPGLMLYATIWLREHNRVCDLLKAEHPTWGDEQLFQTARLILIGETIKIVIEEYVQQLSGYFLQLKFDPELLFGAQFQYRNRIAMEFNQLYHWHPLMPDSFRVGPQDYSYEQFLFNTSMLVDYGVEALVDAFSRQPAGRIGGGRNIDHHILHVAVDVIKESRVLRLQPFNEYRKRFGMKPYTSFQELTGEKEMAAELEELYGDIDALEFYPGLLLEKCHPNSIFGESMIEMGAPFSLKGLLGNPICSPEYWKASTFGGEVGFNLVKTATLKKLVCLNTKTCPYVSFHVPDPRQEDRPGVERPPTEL
Experimental: as §1, §2

| Structure (SMILES) | IC50 [1] [µM] | IC50 (5-LOX enzyme) [µM] | IC50 (COX-1 (ovine)) [µM] | IC50 (COX-1 (ovine); mean of three replicates ± SEM, read-out: IC50 data COX-1) [µM] |
| --- | --- | --- | --- | --- |
| COc1cc(CNC(=O)CCCC/C=C/C(C)C)ccc1O [Capsaicin, (E)-N-(4-hydroxy-3-methoxybenzyl)-8-methylnon-6-enamide] | 28.3 ± 0.55 | 36.4 ± 0.39 | 24.4 ± 0.62 | – |
| COc1cc(/C=C/C(=O)CC(=O)/C=C/c2ccc(O)c(OC)c2)ccc1O [Curcumin, (1E,6E)-1,7-bis(4-hydroxy-3-methoxyphenyl)hepta-1,6-diene-3,5-dione] | – | – | 18.6 ± 0.44 | – |
| CCCCC[C@H](O)CC(=O)CCc1ccc(O)c(OC)c1 [Gingerol, (S)-5-hydroxy-1-(4-hydroxy-3-methoxyphenyl)decan-3-one] | 32.82 ± 0.24 | 42.65 ± 0.17 | – | 27.1 ± 0.82 |
